According to ChEMBL document CHEMBL1275550, “In vitro activity of doripenem, a carbapenem for the treatment of challenging infections caused by gram-negative bacteria, against recent clinical isolates from the United States” (2008):
Values after ≈ are worked out from the molar mass of the structure shown.

Experiments:
Assay type in all cases: functional
Staphylococcus aureus [1] = assay: Antimicrobial activity against methicillin-susceptible Staphylococcus aureus assessed as susceptible isolate by broth microdilution method
Staphylococcus [2] = assay: Antimicrobial activity against methicillin-susceptible coagulase-negative Staphylococcus by broth microdilution method
Staphylococcus aureus [3] = assay: Antimicrobial activity against methicillin-susceptible Staphylococcus aureus by broth microdilution method
Streptococcus pneumoniae [4] = assay: Antimicrobial activity against penicillin-resistant Streptococcus pneumoniae assessed as resistant isolate by broth microdilution method
Streptococcus pneumoniae [5] = assay: Antimicrobial activity against […] assessed as susceptible isolate by broth microdilution method
Streptococcus pneumoniae [6] = assay: Antimicrobial activity against penicillin-susceptible Streptococcus pneumoniae by broth microdilution method
Streptococcus pneumoniae [7] = assay: Antimicrobial activity against penicillin-intermediate Streptococcus pneumoniae assessed as intermediate isolate by broth microdilution method
Streptococcus pneumoniae [8] = assay: Antimicrobial activity against penicillin-resistant Streptococcus pneumoniae by broth microdilution method
Staphylococcus [9] = assay: Antimicrobial activity against methicillin-susceptible coagulase-negative Staphylococcus assessed as susceptible isolate by broth microdilution method
Escherichia coli [10] = assay: Antimicrobial activity against ESBL producing Escherichia coli assessed as susceptible isolate by broth microdilution method
Citrobacter [11] = assay: Antimicrobial activity against Citrobacter with derepressed AmpC beta-lactamsae by broth microdilution method
Enterobacter cloacae [12] = assay: Antimicrobial activity against Enterobacter cloacae with nonderepressed AmpC beta-lactamsae assessed as susceptible isolate by broth microdilution method
Klebsiella pneumoniae [13] = assay: Antimicrobial activity against Non-ESBL Klebsiella pneumoniae by broth microdilution method
Enterobacter cloacae [14] = assay: Antimicrobial activity against Enterobacter cloacae with derepressed AmpC beta-lactamsae assessed as intermediate isolate by broth microdilution method
Klebsiella pneumoniae [15] = assay: Antimicrobial activity against ESBL producing Klebsiella pneumoniae by broth microdilution method
Citrobacter [16] = assay: Antimicrobial activity against Citrobacter with nonderepressed AmpC beta-lactamsae by broth microdilution method
Klebsiella pneumoniae [17] = assay: Antimicrobial activity against ESBL producing Klebsiella pneumoniae assessed as intermediate isolate by broth microdilution method
Proteus mirabilis [18] = assay: Antimicrobial activity against Non-ESBL Proteus mirabilis assessed as intermediate isolate by broth microdilution method
Escherichia coli [19] = assay: Antimicrobial activity against Non-ESBL Escherichia coli by broth microdilution method
Enterobacter cloacae [20] = assay: Antimicrobial activity against Enterobacter cloacae with nonderepressed AmpC beta-lactamsae assessed as intermediate isolate by broth microdilution method
Escherichia coli [21] = assay: Antimicrobial activity against Non-ESBL Escherichia coli assessed as resistant isolate by broth microdilution method
Citrobacter [22] = assay: Antimicrobial activity against Citrobacter with nonderepressed AmpC beta-lactamsae assessed as intermediate isolate by broth microdilution method
Serratia marcescens [23] = assay: Antimicrobial activity against Ceftazidime non-susceptible Serratia marcescens assessed as susceptible isolate by broth microdilution method
Proteus mirabilis [24] = assay: Antimicrobial activity against Non-ESBL Proteus mirabilis assessed as susceptible isolate by broth microdilution method
Enterobacteriaceae [25] = assay: Antimicrobial activity against ceftazidime-susceptible Enterobacteriaceae assessed as resistant isolate by broth microdilution method
Enterobacteriaceae [26] = assay: Antimicrobial activity against Ceftazidime non-susceptible Enterobacteriaceae assessed as intermediate isolate by broth microdilution method
Proteus mirabilis [27] = assay: Antimicrobial activity against ESBL producing Proteus mirabilis assessed as susceptible isolate by broth microdilution method
Enterobacter cloacae [28] = assay: Antimicrobial activity against Enterobacter cloacae with nonderepressed AmpC beta-lactamsae by broth microdilution method
Enterobacteriaceae [29] = assay: Antimicrobial activity against ceftazidime-susceptible Enterobacteriaceae by broth microdilution method
Enterobacteriaceae [30] = assay: Antimicrobial activity against ceftazidime-susceptible Enterobacteriaceae assessed as intermediate isolate by broth microdilution method
Enterobacteriaceae [31] = assay: Antimicrobial activity against Ceftazidime non-susceptible Enterobacteriaceae assessed as susceptible isolate by broth microdilution method
Enterobacter cloacae [32] = assay: Antimicrobial activity against Enterobacter cloacae with derepressed AmpC beta-lactamsae assessed as susceptible isolate by broth microdilution method
Escherichia coli [33] = assay: Antimicrobial activity against ESBL producing Escherichia coli by broth microdilution method
Proteus mirabilis [34] = assay: Antimicrobial activity against Non-ESBL Proteus mirabilis by broth microdilution method
Escherichia coli [35] = assay: Antimicrobial activity against Non-ESBL Escherichia coli assessed as susceptible isolate by broth microdilution method
Enterobacteriaceae [36] = assay: Antimicrobial activity against Ceftazidime non-susceptible Enterobacteriaceae assessed as resistant isolate by broth microdilution method
Escherichia coli [37] = assay: Antimicrobial activity against Non-ESBL Escherichia coli assessed as intermediate isolate by broth microdilution method
Serratia marcescens [38] = assay: Antimicrobial activity against Ceftazidime non-susceptible Serratia marcescens assessed as intermediate isolate by broth microdilution method
Citrobacter [39] = assay: Antimicrobial activity against Citrobacter with nonderepressed AmpC beta-lactamsae assessed as susceptible isolate by broth microdilution method
Klebsiella pneumoniae [40] = assay: Antimicrobial activity against Non-ESBL Klebsiella pneumoniae assessed as intermediate isolate by broth microdilution method
Proteus mirabilis [41] = assay: Antimicrobial activity against ESBL producing Proteus mirabilis by broth microdilution method
Proteus mirabilis [42] = assay: Antimicrobial activity against ESBL producing Proteus mirabilis assessed as intermediate isolate by broth microdilution method
Enterobacter cloacae [43] = assay: Antimicrobial activity against Enterobacter cloacae with derepressed AmpC beta-lactamsae by broth microdilution method
Serratia marcescens [44] = assay: Antimicrobial activity against Ceftazidime susceptible Serratia marcescens by broth microdilution method
Enterobacter cloacae [45] = assay: Antimicrobial activity against Enterobacter cloacae with nonderepressed AmpC beta-lactamsae assessed as resistant isolate by broth microdilution method
Citrobacter [46] = assay: Antimicrobial activity against Citrobacter with derepressed AmpC beta-lactamsae assessed as susceptible isolate by broth microdilution method
Serratia marcescens [47] = assay: Antimicrobial activity against Ceftazidime non-susceptible Serratia marcescens assessed as resistant isolate by broth microdilution method
Klebsiella pneumoniae [48] = assay: Antimicrobial activity against ESBL producing Klebsiella pneumoniae assessed as susceptible isolate by broth microdilution method
Serratia marcescens [49] = assay: Antimicrobial activity against Ceftazidime susceptible Serratia marcescens assessed as resistant isolate by broth microdilution method
Klebsiella pneumoniae [50] = assay: Antimicrobial activity against Non-ESBL Klebsiella pneumoniae assessed as susceptible isolate by broth microdilution method
Citrobacter [51] = assay: Antimicrobial activity against Citrobacter with derepressed AmpC beta-lactamsae assessed as resistant isolate by broth microdilution method
Serratia marcescens [52] = assay: Antimicrobial activity against Ceftazidime susceptible Serratia marcescens assessed as intermediate isolate by broth microdilution method
Escherichia coli [53] = assay: Antimicrobial activity against ESBL producing Escherichia coli assessed as intermediate isolate by broth microdilution method
Klebsiella pneumoniae [54] = assay: Antimicrobial activity against ESBL producing Klebsiella pneumoniae assessed as resistant isolate by broth microdilution method
Enterobacter cloacae [55] = assay: Antimicrobial activity against Enterobacter cloacae with derepressed AmpC beta-lactamsae assessed as resistant isolate by broth microdilution method
Escherichia coli [56] = assay: Antimicrobial activity against ESBL producing Escherichia coli assessed as resistant isolate by broth microdilution method
Serratia marcescens [57] = assay: Antimicrobial activity against Ceftazidime non-susceptible Serratia marcescens by broth microdilution method
Enterobacteriaceae [58] = assay: Antimicrobial activity against Ceftazidime non-susceptible Enterobacteriaceae by broth microdilution method
Enterobacteriaceae [59] = assay: Antimicrobial activity against ceftazidime-susceptible Enterobacteriaceae assessed as susceptible isolate by broth microdilution method
Serratia marcescens [60] = assay: Antimicrobial activity against Ceftazidime susceptible Serratia marcescens assessed as susceptible isolate by broth microdilution method
[61] = Streptococcus pneumoniae, read-out: MIC90

C[C@@H](O)[C@H]1C(=O)N2C(C(=O)O)=C(S[C@@H]3CN[C@H](C(=O)Nc4cccc(C(=O)O)c4)C3)[C@H](C)[C@H]12
Activity (Staphylococcus aureus [1]): 99.4% | MIC90 (Staphylococcus [2]): 0.5 mg/L (≈ 1.05 µM) | MIC90 (Staphylococcus [2]; Staphylococcus, read-out: MIC90): 0.25 mg/L (≈ 0.526 µM) | MIC90 (Staphylococcus aureus [3]): 0.5 mg/L (≈ 1.05 µM) | MIC90 (Staphylococcus aureus [3]; Staphylococcus aureus, read-out: MIC90): 0.25 mg/L (≈ 0.526 µM) | Activity (Streptococcus pneumoniae [4]): 39.6% | Activity (Streptococcus pneumoniae [5]): 100% | MIC90 (Streptococcus pneumoniae [6]): 0.03 mg/L (≈ 0.0631 µM) | MIC90 (Streptococcus pneumoniae [6]; [61]): 0.03 mg/L (≈ 0.0631 µM) | Activity (Streptococcus pneumoniae [7]): 94.5% | MIC90 (Streptococcus pneumoniae [8]): 2 mg/L (≈ 4.21 µM) | MIC90 (Streptococcus pneumoniae [8]; [61]): 2 mg/L (≈ 4.21 µM) | Activity (Staphylococcus [9]): 99.4%

CO/N=C(\C(=O)N[C@@H]1C(=O)N2C(C(=O)O)=C(CSc3nc(=O)c(O)nn3C)CS[C@H]12)c1csc(N)n1 [CEFTRIAXONE]
Activity (Escherichia coli [10]): 20% | MIC50 (Citrobacter [11]): 64 mg/L (≈ 115 µM) | MIC90 (Citrobacter [11]): > 64 mg/L | Activity (Enterobacter cloacae [12]): 91.9% | MIC50 (Klebsiella pneumoniae [13]): 0.03 mg/L (≈ 0.0541 µM) | MIC90 (Klebsiella pneumoniae [13]): 0.12 mg/L (≈ 0.216 µM) | Activity (Enterobacter cloacae [14]): 6.8% | MIC50 (Klebsiella pneumoniae [15]): 64 mg/L (≈ 115 µM) | MIC90 (Klebsiella pneumoniae [15]): > 64 mg/L | MIC50 (Citrobacter [16]): 0.12 mg/L (≈ 0.216 µM) | MIC90 (Citrobacter [16]): 0.5 mg/L (≈ 0.902 µM) | Activity (Klebsiella pneumoniae [17]): 8.2% | Activity (Proteus mirabilis [18]): 0.3% | MIC50 (Escherichia coli [19]): 0.03 mg/L (≈ 0.0541 µM) | MIC90 (Escherichia coli [19]): 0.06 mg/L (≈ 0.108 µM) | Activity (Enterobacter cloacae [20]): 4.7% | Activity (Escherichia coli [21]): 0.2% | Activity (Citrobacter [22]): 1.1% | Activity (Serratia marcescens [23]): 10% | Activity (Proteus mirabilis [24]): 99.7% | Activity (Enterobacteriaceae [25]): 0.3% | Activity (Enterobacteriaceae [26]): 26.9% | Activity (Proteus mirabilis [27]): 100% | MIC50 (Enterobacter cloacae [28]): 0.25 mg/L (≈ 0.451 µM) | MIC90 (Enterobacter cloacae [28]): 4 mg/L (≈ 7.21 µM) | MIC50 (Enterobacteriaceae [29]): 0.03 mg/L (≈ 0.0541 µM) | MIC90 (Enterobacteriaceae [29]): 0.25 mg/L (≈ 0.451 µM) | Activity (Enterobacteriaceae [30]): 0.4% | Activity (Enterobacteriaceae [31]): 7.6% | Activity (Enterobacter cloacae [32]): 0% | MIC50 (Escherichia coli [33]): > 64 mg/L | MIC90 (Escherichia coli [33]): > 64 mg/L | MIC (Proteus mirabilis [34]): ≤ 0.015 mg/L | MIC50 (Proteus mirabilis [34]): ≤ 0.015 mg/L | MIC90 (Proteus mirabilis [34]): ≤ 0.015 mg/L | Activity (Escherichia coli [35]): 98.7% | Activity (Enterobacteriaceae [36]): 65.4% | Activity (Escherichia coli [37]): 1.1% | Activity (Serratia marcescens [38]): 30% | Activity (Citrobacter [39]): 97.8% | Activity (Klebsiella pneumoniae [40]): 0.3% | MIC (Proteus mirabilis [41]): 0.06 mg/L (≈ 0.108 µM) | Activity (Proteus mirabilis [42]): 0% | MIC50 (Enterobacter cloacae [43]): > 64 mg/L | MIC90 (Enterobacter cloacae [43]): > 64 mg/L | MIC50 (Serratia marcescens [44]): 0.25 mg/L (≈ 0.451 µM) | MIC90 (Serratia marcescens [44]): 1 mg/L (≈ 1.8 µM) | Activity (Enterobacter cloacae [45]): 3.5% | Activity (Citrobacter [46]): 1.8% | Activity (Serratia marcescens [47]): 60% | Activity (Klebsiella pneumoniae [48]): 9.1% | Activity (Serratia marcescens [49]): 0.6% | Activity (Klebsiella pneumoniae [50]): 99.3% | Activity (Citrobacter [51]): 54.5% | Activity (Serratia marcescens [52]): 1.4% | Activity (Escherichia coli [53]): 13.3% | Activity (Klebsiella pneumoniae [54]): 72.7% | Activity (Enterobacter cloacae [55]): 93.2% | Activity (Escherichia coli [56]): 66.7% | MIC50 (Serratia marcescens [57]): 64 mg/L (≈ 115 µM) | MIC90 (Serratia marcescens [57]): > 64 mg/L | MIC50 (Enterobacteriaceae [58]): > 64 mg/L | MIC90 (Enterobacteriaceae [58]): > 64 mg/L | Activity (Enterobacteriaceae [59]): 99.3% | Activity (Serratia marcescens [60]): 98.1%
